Test results reported in patent US11786503B2, “Pharmaceutical compositions and methods for countering chemotherapy induced cardiotoxicity” (Auransa Inc., priority 2016, dated 2023).
Where two headings read alike, the source gives them in different places.

Key:
TOPOIIβ = biological target: T1, TOPOIIβ (Homo sapiens, UniProt Q02880); experiment: kDNA decatenation assay, TOPOIIβ; assay type: biochemical; settings: for TOPOIIβ inhibition, in words: decatenation assay;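 on all read-outs here: kinetoplast DNA incubated with one unit of TOPOIIβ at 37 °C for 30 min, decatenated product resolved on 1% agarose gel, inhibition scored from relative band intensity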
T1 construct: purchased Inspiralis
T1 sequence (Q02880 whole entry): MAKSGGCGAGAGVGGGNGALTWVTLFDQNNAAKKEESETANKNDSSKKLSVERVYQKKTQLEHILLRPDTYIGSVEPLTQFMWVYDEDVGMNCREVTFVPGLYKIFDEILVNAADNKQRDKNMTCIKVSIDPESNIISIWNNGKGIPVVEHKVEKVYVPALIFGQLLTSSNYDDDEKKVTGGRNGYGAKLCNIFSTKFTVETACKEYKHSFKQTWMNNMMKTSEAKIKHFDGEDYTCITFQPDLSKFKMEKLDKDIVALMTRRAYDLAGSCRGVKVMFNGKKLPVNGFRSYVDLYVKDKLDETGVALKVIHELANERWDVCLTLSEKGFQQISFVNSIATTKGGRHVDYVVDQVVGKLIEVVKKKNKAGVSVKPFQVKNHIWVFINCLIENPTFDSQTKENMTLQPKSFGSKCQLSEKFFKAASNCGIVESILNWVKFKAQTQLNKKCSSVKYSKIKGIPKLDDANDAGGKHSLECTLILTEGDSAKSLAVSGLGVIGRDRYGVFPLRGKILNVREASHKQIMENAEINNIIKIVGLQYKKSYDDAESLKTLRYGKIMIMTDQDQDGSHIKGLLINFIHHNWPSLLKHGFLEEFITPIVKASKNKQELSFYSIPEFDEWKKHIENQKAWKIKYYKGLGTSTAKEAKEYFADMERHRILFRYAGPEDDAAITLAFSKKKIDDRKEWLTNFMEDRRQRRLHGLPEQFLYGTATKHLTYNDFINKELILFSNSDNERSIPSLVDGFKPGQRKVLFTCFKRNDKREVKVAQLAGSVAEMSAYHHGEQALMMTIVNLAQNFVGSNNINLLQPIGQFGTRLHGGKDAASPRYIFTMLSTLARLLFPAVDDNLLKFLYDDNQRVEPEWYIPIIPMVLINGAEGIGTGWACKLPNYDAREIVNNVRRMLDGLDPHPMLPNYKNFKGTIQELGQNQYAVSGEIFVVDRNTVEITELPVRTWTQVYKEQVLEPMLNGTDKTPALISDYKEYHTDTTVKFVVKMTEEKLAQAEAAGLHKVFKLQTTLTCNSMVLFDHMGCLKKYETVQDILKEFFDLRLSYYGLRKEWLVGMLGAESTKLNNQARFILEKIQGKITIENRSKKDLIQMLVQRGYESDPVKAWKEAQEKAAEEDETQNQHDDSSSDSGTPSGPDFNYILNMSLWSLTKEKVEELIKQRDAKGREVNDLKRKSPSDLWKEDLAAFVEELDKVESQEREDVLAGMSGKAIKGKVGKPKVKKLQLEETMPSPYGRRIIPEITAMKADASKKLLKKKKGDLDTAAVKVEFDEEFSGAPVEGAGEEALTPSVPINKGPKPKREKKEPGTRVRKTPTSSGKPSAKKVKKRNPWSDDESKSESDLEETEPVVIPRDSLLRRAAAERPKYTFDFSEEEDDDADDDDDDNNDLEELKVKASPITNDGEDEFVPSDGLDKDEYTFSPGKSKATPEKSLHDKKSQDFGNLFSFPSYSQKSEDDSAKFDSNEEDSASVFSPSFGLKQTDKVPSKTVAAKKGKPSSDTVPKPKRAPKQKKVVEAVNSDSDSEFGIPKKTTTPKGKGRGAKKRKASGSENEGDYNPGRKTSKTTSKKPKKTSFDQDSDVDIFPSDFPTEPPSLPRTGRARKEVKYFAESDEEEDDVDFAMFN

[1] = system: Doxorubicin treated human iPSC-derived cardiomyocytes; experiment: iPSC-CM protection by myricetin analogs (Table 1); assay type: cell-based; settings: for cardioprotection, in words: Table 1; for EC50 / Emax: Homo sapiens
cardiomyocytes = experiment: cytotoxicity of myricetin analogs to cardiomyocytes (Table 1, Toxicity); settings: for cytotoxicity, in words: at 100 μM where stated; for cytotoxicity, in words / toxic effects at concentrations less than 100 μM: Table 1; for Toxicity: * = cytotoxicity at 100 μM
TOPOIIα = biological target: T2, TOPOIIα (Homo sapiens, UniProt P11388); experiment: kDNA decatenation assay, TOPOIIα; assay type: biochemical; settings: for TOPOIIα inhibition, in words: decatenation assay;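 on all read-outs here: kDNA incubated with one unit of TOPOIIα at 37 °C for 30 min, decatenated product resolved on 1% agarose gel, inhibition from relative band intensity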
T2 construct: purchased Inspiralis
T2 sequence (P11388 whole entry): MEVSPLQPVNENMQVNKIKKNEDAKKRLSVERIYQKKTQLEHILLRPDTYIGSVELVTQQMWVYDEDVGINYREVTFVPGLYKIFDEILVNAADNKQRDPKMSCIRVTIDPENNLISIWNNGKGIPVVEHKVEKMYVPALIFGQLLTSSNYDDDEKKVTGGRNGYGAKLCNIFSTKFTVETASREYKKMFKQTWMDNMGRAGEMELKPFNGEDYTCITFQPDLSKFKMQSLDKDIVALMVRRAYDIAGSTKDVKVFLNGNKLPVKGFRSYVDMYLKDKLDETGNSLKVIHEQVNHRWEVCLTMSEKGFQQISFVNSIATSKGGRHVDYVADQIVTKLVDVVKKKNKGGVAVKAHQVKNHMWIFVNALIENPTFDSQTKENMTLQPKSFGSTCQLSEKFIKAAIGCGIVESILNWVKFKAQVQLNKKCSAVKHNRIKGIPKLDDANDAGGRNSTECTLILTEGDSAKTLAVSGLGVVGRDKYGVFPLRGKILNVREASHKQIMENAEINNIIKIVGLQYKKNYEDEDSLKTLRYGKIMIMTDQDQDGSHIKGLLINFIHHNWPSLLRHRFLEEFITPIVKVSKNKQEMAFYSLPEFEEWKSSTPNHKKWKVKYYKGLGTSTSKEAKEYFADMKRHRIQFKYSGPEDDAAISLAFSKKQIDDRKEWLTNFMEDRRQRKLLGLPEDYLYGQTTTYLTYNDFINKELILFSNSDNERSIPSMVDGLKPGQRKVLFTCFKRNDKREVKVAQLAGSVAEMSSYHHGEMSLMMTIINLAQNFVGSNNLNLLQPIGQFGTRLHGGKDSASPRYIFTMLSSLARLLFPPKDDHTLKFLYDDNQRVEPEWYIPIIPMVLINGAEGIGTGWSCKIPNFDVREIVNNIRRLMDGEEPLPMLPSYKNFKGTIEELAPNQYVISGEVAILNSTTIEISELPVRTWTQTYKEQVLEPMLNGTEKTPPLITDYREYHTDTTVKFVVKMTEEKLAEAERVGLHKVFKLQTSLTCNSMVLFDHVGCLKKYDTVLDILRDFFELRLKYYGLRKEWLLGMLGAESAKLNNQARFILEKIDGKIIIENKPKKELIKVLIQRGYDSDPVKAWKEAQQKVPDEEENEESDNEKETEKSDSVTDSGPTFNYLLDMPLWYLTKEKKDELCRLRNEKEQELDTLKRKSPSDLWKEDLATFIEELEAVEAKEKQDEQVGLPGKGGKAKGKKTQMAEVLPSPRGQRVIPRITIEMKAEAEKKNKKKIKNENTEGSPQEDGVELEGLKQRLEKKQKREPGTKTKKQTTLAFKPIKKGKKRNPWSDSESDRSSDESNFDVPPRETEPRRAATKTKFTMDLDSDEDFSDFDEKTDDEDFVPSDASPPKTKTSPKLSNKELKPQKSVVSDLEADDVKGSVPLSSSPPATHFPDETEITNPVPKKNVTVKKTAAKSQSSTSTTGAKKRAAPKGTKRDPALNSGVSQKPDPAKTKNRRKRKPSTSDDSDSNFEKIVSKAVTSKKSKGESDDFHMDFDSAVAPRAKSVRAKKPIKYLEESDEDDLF

A549 cells = experiment: doxorubicin-mediated death of lung cancer cells, CellTiter-Glo (Example 22); assay type: cell-based; settings: co-treated with increasing concentrations of doxorubicin, 72 hours
Protocol: A549 cells (lung cancer) were cultured for 1 day before performing experiments. […] XLFit was used for curve fitting.

[2] = system: cardiomyocytes differentiated from induced pluripotent stem cells; experiment: acute toxicity on electrophysiology, MEA beat period and field potential duration (Example 23); assay type: cell-based; settings: at least 20 minutes; for difference in beat period or field potential duration vs control samples: lower drug concentration; for acute drug toxicity on beating: higher concentrations
Protocol: Samples were either mock-treated with 0.1% DMSO, or treated with increasing concentrations of the indicated drug for at least 20 minutes. Cardiomyocytes were treated with the hERG potassium channel blocker E4031 as a control. Following treatment, the beat period and field potential duration (FPD) were measured in each sample using the MEA.

MDA-MB-231 cells = settings: co-treated with increasing concentrations of doxorubicin, 72 hours
[3] = system: cardiomyocytes differentiated from induced pluripotent stem cells; experiment: long term toxicity on electrophysiology, active electrodes (Example 24); assay type: cell-based; settings: various concentrations, at least 5 days
Protocol: Samples were either mock-treated with 0.1% DMSO, or treated with various concentrations of the indicated drug. Following treatment, the percentage of active electrodes in each sample was measured for at least 5 days. Percentage of active electrodes was quantified and graphed in a time course.

[4] = system: Human iPSC-derived cardiomyocytes; experiment: DOX-induced DNA double strand break, γH2AX immunostaining; assay type: cell-based; settings: Homo sapiens, Cardiomyocyte, read-out: IC50, concentration at which DOX-induced double strand break was reduced to 50%; 0.5 μM of doxorubicin, 48 hours
[5] = system: Cardiomyocytes (human iPSC-derived); experiment: doxorubicin-induced apoptosis, CellEvent dye, 3 days (Example 4); assay type: cell-based; settings: Cardiomyocyte, 72 h, co-treated with 1 μM of doxorubicin, read-out: IC50 for protective effects against apoptosis
Protocol: Cardiomyocytes were prepared as described above. […] Following treatment, the samples were incubated with a CellEvent dye to indicate apoptosis-positive cells, and a second dye to identify cell nuclei.

[6] = system: Human iPSC-derived cardiomyocytes; experiment: cells; assay type: cell-based; settings: Cardiomyocyte, 0.5 μM of Doxorubicin, 72 hours, read-out: EC50 for rescue from DOX-induced cell death
Protocol: To measure the rescue rates from the DOX-induced cell death in cardiomyocytes, the protective effect of myricetin was directly compared with that of dexraxozane (DEX; standard of care). Human iPSC-derived cardiomyocytes were treated with 0.5 μM of Doxorubicin and increasing concentrations of myricetin (MYR, circle) or dexraxozane (DEX, square). […] Cells were imaged using INCell Analyzer2200 (GE). […] (n=3).
Next, the ability of MYR to confer cardioprotection was directly compared with that of DHM as these two compounds display distinctive property in their structures and TOPOI inhibition activity. […] Human iPSC-derived cardiomyocytes were treated with 0.5 μM of Doxorubicin and increasing concentrations of myricetin (MYR, circle) or dihydromyricetin (DHM, triangle).

[7] = iPSC-CM, read-out: iPSC-CM protection EC50
[8] = iPSC-CM, read-out: iPSC-CM protection Max Effect (%)
[9] = iPSC-CM, initial screen at 10 μM or 100 μM, read-out: iPSC-CM protection Max Effect (%), class symbol
[10] = even at extreme concentrations (>200 μM)

In the case of `O=c1c(O)c(-c2ccccc2)oc2cc(O)cc(O)c12` [3,5,7-trihydroxyflavone], the “TOPOIIβ inhibition, in words” value (TOPOIIβ) is reported as “neither cardioprotection nor TOPOII inhibition”, the “cardioprotection, in words” value [1] is reported as “neither cardioprotection nor TOPOII inhibition” and the “cytotoxicity, in words” value (cardiomyocytes) is reported as “generalized cytotoxicity”. The “TOPOIIα inhibition, in words” value (TOPOIIα) was “neither cardioprotection nor TOPOII inhibition”.

In the case of `O=c1c(O)c(-c2cc(O)c(O)c(O)c2)oc2cc(O)ccc12` [Compound 2, 3,7,3′,4′,5′-pentahydroxyflavone], the “TOPOIIβ inhibition, in words” value (TOPOIIβ) is reported as “high level of inhibition”, the EC50 ([1]; Cardiomyocyte, approximate, read-out: EC50 for cardioprotection) is reported as 10 to 20 µM and the EC50 [1, 7] is reported as 12.6 µM. The Emax [1, 8] was 64%, the Toxicity (cardiomyocytes) was “−” and the “TOPOIIα inhibition, in words” value (TOPOIIα) was “high level of inhibition”.

For `O=c1cc(-c2cc(O)c(O)c(O)c2)oc2cc(O)cc(O)c12` [Compound 3, 5,7,3′,4′,5′-pentahydroxyflavone], the “TOPOIIβ inhibition, in words” value (TOPOIIβ) was “displayed cardioprotection and TOPOII inhibition”, the EC50 [1, 7] was 17.2 µM and the Emax [1, 8] was 56%. The “cardioprotection, in words” value [1] was “displayed cardioprotection”, the “toxic effects at concentrations less than 100 μM” value (cardiomyocytes) was “some toxic effects” and the “cytotoxicity, in words” value (cardiomyocytes) was “low level of cytotoxicity”. The “TOPOIIα inhibition, in words” value (TOPOIIα) was “displayed cardioprotection and TOPOII inhibition”.

With `O=c1c(O)c(-c2ccc(O)c(O)c2)oc2cc(O)cc(O)c12` [Compound 4, 3,5,7,3′,4′-pentahydroxyflavone] the “TOPOIIβ inhibition, in words” value (TOPOIIβ) was “exhibited TOPOII inhibition”, the EC50 [1, 7] was 20.5 µM and the Emax [1, 8] was 58%. For the same compound, the “cardioprotection, in words” value [1] was “conferred cardioprotection”, the “cytotoxicity, in words” value (cardiomyocytes) was “high level of general cytoxicity” and the “TOPOIIα inhibition, in words” value (TOPOIIα) was “exhibited TOPOII inhibition”.

`O=c1cc(-c2cc(O)c(O)c(O)c2)oc2cc(O)ccc12` [Compound 6, 7,3′4′,5′-tetrahydroxyflavone] was tested, and the “TOPIIβ Inhibition” value (TOPOIIβ) was “−”, the “TOPOIIβ inhibition, in words” value (TOPOIIβ) was “did not inhibit TOPOII enzymes” and the EC50 [1, 7] was 17.1 µM. For the same compound, the Emax [1, 8] was 71%, the “cardioprotection, in words” value [1] was “displayed cardioprotection” and the Toxicity (cardiomyocytes) was “−”. For the same compound, the “TOPIIα Inhibition” value (TOPOIIα) was “−” and the “TOPOIIα inhibition, in words” value (TOPOIIα) was “did not inhibit TOPOII enzymes”.

In the case of `O=c1ccoc2cc(O)ccc12` [Compound 7-hydroxy-4-chromone, 7-hydroxy-4-chromone], the “TOPOIIβ inhibition, in words” value (TOPOIIβ) is reported as “Nor did either compound confer TOPOIIβ or a inhibition”, the “cardioprotection, in words” value [1] is reported as “no positive effect” and the “cytotoxicity, in words” value (cardiomyocytes) is reported as “high level of cytotoxicity”. For the same compound, the “TOPOIIα inhibition, in words” value (TOPOIIα) was “Nor did either compound confer TOPOIIβ or a inhibition”.

`O=c1cc(-c2cc(O)c(O)c(O)c2)oc2ccccc12` [Compound 8, 3′,4′,5′-trihydroxyflavone] was tested, and the “TOPIIβ Inhibition” value (TOPOIIβ) was “−”, the Rescue [1] was “+” and the EC50 [1, 7] was 43 µM. For the same compound, the Emax [1, 8] was 64%, the Toxicity (cardiomyocytes) was “−” and the “TOPIIα Inhibition” value (TOPOIIα) was “−”.

`O=c1c(O)c(-c2ccc(O)cc2)oc2cc(O)ccc12` [Compound 10, 3,7,4′-trihydroxyflavone] was tested, and the “TOPIIβ Inhibition” value (TOPOIIβ) was “−”, the Rescue [1] was “+” and the EC50 [1, 7] was 3.26 µM. The Emax [1, 8] was 27%, the “toxic effects at concentrations less than 100 μM” value (cardiomyocytes) was “exhibited toxic effects” and the “TOPIIα Inhibition” value (TOPOIIα) was “−”.

For `O=c1ccoc2ccccc12` [Compound 29, chromone], the Rescue [1] was “−”, the Emax [1, 9] was < 30% and the Toxicity (cardiomyocytes) was “−”.

`COc1ccc2c(=O)c(OC)c(-c3cc(OC)c(OC)c(OC)c3)oc2c1` [Compound 37, 3,7,3′,4′,5′-O-pentamethylrobinetin] was tested, and the “TOPIIβ Inhibition” value (TOPOIIβ) was “−”, the Rescue [1] was “−” and the “iPSC-CM protection Max Effect (%), class symbol” value ([1]; initial screen at 10 μM or 100 μM) was “† (Compounds failed to exhibit >30% protection Max Effect at 10 μM or 100 μM on initial screen.)”. The “TOPIIα Inhibition” value (TOPOIIα) was “−”.

`O=c1ccoc2cc(O)ccc12` [Compound 38, 7-hydroxy-4-chromone] was tested, and the “TOPIIβ Inhibition” value (TOPOIIβ) was “−”, the Rescue [1] was “−” and the Emax [1, 9] was < 30%. The “TOPIIα Inhibition” value (TOPOIIα) was “−”.

With `CC(=O)N[C@@H](CS)C(=O)O` [N-acetyl cysteine] the “difference in the percentage of cell death vs doxorubicin without protective agent” value (A549 cells) was “no significant difference”, the “difference in beat period or field potential duration vs control samples” value (shortened to “difference … vs control samples”) [2] was “no appreciable difference” and the “difference in the percentage of cell death vs doxorubicin without protective agent” value (MDA-MB-231 cells) was “no significant difference”.

`Nc1c(Br)cc(Br)cc1CN[C@H]1CC[C@H](O)CC1` [ambroxol] was tested, and the “difference in the percentage of cell death vs doxorubicin without protective agent” value (A549 cells) was “no significant difference”, the “difference … vs control samples” value [2] was “no appreciable difference” and the “difference in the percentage of cell death vs doxorubicin without protective agent” value (MDA-MB-231 cells) was “no significant difference”. The “decrease in the number of active electrodes relative to the mock-treated sample” value [3] was “no observable decrease”.

`C[C@H](CCC(=O)O)[C@H]1CC[C@H]2[C@@H]3[C@H](O)C[C@@H]4C[C@H](O)CC[C@]4(C)[C@H]3CC[C@]12C` [chenodeoxycholic acid] was tested, and the “acute drug toxicity on beating” value [2] was “beating cessation” and the “difference … vs control samples” value [2] was “no appreciable difference”.

For `O=c1ccoc2ccccc12` [chromone], the “TOPOIIβ inhibition, in words” value (TOPOIIβ) was “Nor did either compound confer TOPOIIβ or a inhibition”, the “cardioprotection, in words” value [1] was “no positive effect” and the “TOPOIIα inhibition, in words” value (TOPOIIα) was “Nor did either compound confer TOPOIIβ or a inhibition”.

In the case of `CC(=O)N(O)CCCCCNC(=O)CCC(=O)N(O)CCCCCNC(=O)CCC(=O)N(O)CCCCCN` [deferoxamine], the “difference … vs control samples” value [2] is reported as “no appreciable difference”.

For `O=C1c2c(O)cc(O)cc2O[C@H](c2cc(O)c(O)c(O)c2)[C@H]1O` [dihydromyricetin], the IC50 [4] was 11.3 µM, the IC50 [5] was 40.5 µM and the “TOPOIIβ enzymatic activity inhibition” value (TOPOIIβ; [10]) was “did not inhibit”. For the same compound, the EC50 [6] was 14 µM and the “TOPOIIα enzymatic activity inhibition” value (TOPOIIα; [10]) was “did not inhibit”.

With `Nc1ccc(O)c(C(=O)O)c1` [mesalamine] the “difference in the percentage of cell death vs doxorubicin without protective agent” value (A549 cells) was “no significant difference”, the “difference in the percentage of cell death vs doxorubicin without protective agent” value (MDA-MB-231 cells) was “no significant difference” and the “decrease in the number of active electrodes relative to the mock-treated sample” value [3] was “no observable decrease”.

`C[C@@H]1O[C@@H](Oc2c(-c3cc(O)c(O)c(O)c3)oc3cc(O)cc(O)c3c2=O)[C@H](O)[C@H](O)[C@H]1O` [myricitrin] showed an IC50 [5] of 38.5 µM.

In the case of `O=C1C[C@@H](c2ccc(O)cc2)Oc2cc(O)cc(O)c21` [naringenin], the “acute drug toxicity on beating” value [2] is reported as “beating cessation” and the “difference … vs control samples” value [2] is reported as “no appreciable difference”.
